In the test the test system is JR251 or RBL cells. The test is described as follows: Store-operated calcium entry, either JR251 or RBL cells, or both. The class given is cell-based. The method, then:
The day prior to performing the assay, RBL-2H3 cells are plated in 50 μL of complete medium in a 384 well plate. Cells are grown at 37° C./6% CO2 overnight and grow to 50-60% confluence by the next day. On the assay day, 1.5 μM Fluo-4-AM dye (Invitrogen) in complete medium is added and incubated for 1 hour at RT. Cells are washed twice in Ca^2+-free HBSS buffer and 35 μL Ca^2+-free HBSS buffer is added to each well. 10 μL of a test compound prepared in a Ca^2+-free HBSS solution at 4.5× of the desired concentration is added to a well and incubated for 5 minutes at RT. 10 μL of thapsigargin prepared in a Ca^2+-free HBSS solution at 5.5× of the desired concentration (5.5 uM) is added to each well and incubated for an additional 25 minutes. The initial baseline fluorescence signal is measured with a FLIPR^384 (Molecular Devices) plate reader. 5 μL of 12× calcium in HBSS (12 mM) is added and changes in cellular fluorescence are measured with the FLIPR^384 plate reader. In each well, the change in the fluorescent signal as a function of time due to calcium entry into the cell is determined by calculating the difference between the fluorescent signal measured 7 seconds after calcium addition and the initial baseline fluorescence signal at time zero (t=0). This parameter is designated Upslope. The IC50 value is calculated as the concentration at which 50% of the Upslope is inhibited.

As to `Cc1ccc(-c2csc(NC(=O)c3nc4ccccc4o3)c2C(=O)O)cc1CO` [2-(benzo[d]oxazole-2-carboxamido)-4-(3-(hydroxymethyl)-4-methylphenyl)thiophene-3-carboxylic acid], the concentration for half-maximal inhibition (IC50) was less than 10 µM.
The result for `N#Cc1cc(-c2csc(NC(=O)c3nc4ccccc4o3)c2C(=O)O)ccc1F` [2-(benzo[d]oxazole-2-carboxamido)-4-(3-cyano-4-fluorophenyl)thiophene-3-carboxylic acid] reads less than 10 µM; that for `Cc1ccc(-c2csc(NC(=O)c3nc4ccccc4o3)c2C(=O)O)cc1F` [2-(benzo[d]oxazole-2-carboxamido)-4-(3-fluoro-4-methylphenyl)thiophene-3-carboxylic acid], less than 10 µM.
As to `O=C(Nc1scc(-c2ccc(OC(F)(F)F)cc2)c1C(=O)O)c1nc2ccccc2o1` [2-(benzo[d]oxazole-2-carboxamido)-4-(4-(trifluoromethoxy)phenyl)thiophene-3-carboxylic acid], the IC50 is less than 10 µM.
As to `O=C(Nc1scc(-c2ccc(C(F)(F)F)cc2)c1C(=O)O)c1nc2ccccc2o1` [2-(benzo[d]oxazole-2-carboxamido)-4-(4-(trifluoromethyl)phenyl)thiophene-3-carboxylic acid], the IC50 was less than 10 µM.
With `O=C(Nc1scc(-c2ccc(Br)c(F)c2F)c1C(=O)O)c1nc2ccccc2o1` [2-(benzo[d]oxazole-2-carboxamido)-4-(4-bromo-2,3-difluorophenyl)thiophene-3-carboxylic acid] the figure was less than 10 µM.
The result for `O=C(Nc1scc(-c2ccc(Br)cc2F)c1C(=O)O)c1nc2ccccc2o1` [2-(benzo[d]oxazole-2-carboxamido)-4-(4-bromo-2-fluorophenyl)thiophene-3-carboxylic acid] reads less than 10 µM.
For `O=C(Nc1scc(-c2ccc(Br)cc2)c1C(=O)O)c1nc2ccccc2o1` [2-(benzo[d]oxazole-2-carboxamido)-4-(4-bromophenyl)thiophene-3-carboxylic acid], the 50% inhibitory concentration (IC50) is less than 10 µM.
With `O=C(Nc1scc(-c2ccc(Cl)c(F)c2F)c1C(=O)O)c1nc2ccccc2o1` [2-(benzo[d]oxazole-2-carboxamido)-4-(4-chloro-2,3-difluorophenyl)thiophene-3-carboxylic acid] the figure was less than 10 µM.
With `O=C(Nc1scc(-c2cc(F)c(Cl)cc2F)c1C(=O)O)c1nc2ccccc2o1` [2-(benzo[d]oxazole-2-carboxamido)-4-(4-chloro-2,5-difluorophenyl)thiophene-3-carboxylic acid] the figure was less than 10 µM; with `Cc1cc(-c2csc(NC(=O)c3nc4ccccc4o3)c2C(=O)O)c(F)cc1Cl` [2-(benzo[d]oxazole-2-carboxamido)-4-(4-chloro-2-fluoro-5-methylphenyl)thiophene-3-carboxylic acid], less than 10 µM; with `O=C(Nc1scc(-c2ccc(Cl)cc2F)c1C(=O)O)c1nc2ccccc2o1` [2-(benzo[d]oxazole-2-carboxamido)-4-(4-chloro-2-fluorophenyl)thiophene-3-carboxylic acid], less than 10 µM.
With `Cc1cc(Cl)ccc1-c1csc(NC(=O)c2nc3ccccc3o2)c1C(=O)O` [2-(benzo[d]oxazole-2-carboxamido)-4-(4-chloro-2-methylphenyl)thiophene-3-carboxylic acid] the figure was less than 10 µM; with `O=C(Nc1scc(-c2cc(F)c(Cl)c(F)c2)c1C(=O)O)c1nc2ccccc2o1` [2-(benzo[d]oxazole-2-carboxamido)-4-(4-chloro-3,5-difluorophenyl)thiophene-3-carboxylic acid], less than 10 µM.
For the molecule `O=C(Nc1scc(-c2ccc(Cl)c(C(F)(F)F)c2)c1C(=O)O)c1nc2ccccc2o1` [2-(benzo[d]oxazole-2-carboxamido)-4-(4-chloro-3-(trifluoromethyl)phenyl)thiophene-3-carboxylic acid], the concentration for half-maximal inhibition (IC50) was less than 10 µM.
For the molecule `N#Cc1cc(-c2csc(NC(=O)c3nc4ccccc4o3)c2C(=O)O)ccc1Cl` [2-(benzo[d]oxazole-2-carboxamido)-4-(4-chloro-3-cyanophenyl)thiophene-3-carboxylic acid], the IC50 is less than 10 µM.
The result for `O=C(Nc1scc(-c2ccc(Cl)c(F)c2)c1C(=O)O)c1nc2ccccc2o1` [2-(benzo[d]oxazole-2-carboxamido)-4-(4-chloro-3-fluorophenyl)thiophene-3-carboxylic acid] reads less than 10 µM; that for `COc1cc(-c2csc(NC(=O)c3nc4ccccc4o3)c2C(=O)O)ccc1Cl` [2-(benzo[d]oxazole-2-carboxamido)-4-(4-chloro-3-methoxyphenyl)thiophene-3-carboxylic acid], less than 10 µM.
With `O=C(Nc1scc(-c2ccc(Cl)cc2)c1C(=O)O)c1nc2ccccc2o1` [2-(benzo[d]oxazole-2-carboxamido)-4-(4-chlorophenyl)thiophene-3-carboxylic acid] the figure was less than 10 µM.
With `N#Cc1ccc(-c2csc(NC(=O)c3nc4ccccc4o3)c2C(=O)O)c(F)c1` [2-(benzo[d]oxazole-2-carboxamido)-4-(4-cyano-2-fluorophenyl)thiophene-3-carboxylic acid] the figure was less than 10 µM; with `Cc1cc(C#N)ccc1-c1csc(NC(=O)c2nc3ccccc3o2)c1C(=O)O` [2-(benzo[d]oxazole-2-carboxamido)-4-(4-cyano-2-methylphenyl)thiophene-3-carboxylic acid], less than 10 µM; with `O=Cc1ccc(-c2csc(NC(=O)c3nc4ccccc4o3)c2C(=O)O)cc1` [2-(benzo[d]oxazole-2-carboxamido)-4-(4-formylphenyl)thiophene-3-carboxylic acid], less than 10 µM.
On to `O=C(Nc1scc(-c2ccc(Oc3ccccc3)cc2)c1C(=O)O)c1nc2ccccc2o1` [2-(benzo[d]oxazole-2-carboxamido)-4-(4-phenoxyphenyl)thiophene-3-carboxylic acid], for which the concentration for half-maximal inhibition (IC50) was less than 10 µM.
Take `O=C(Nc1scc(-c2cc3cccc(O)c3o2)c1C(=O)O)c1nc2ccccc2o1` [2-(benzo[d]oxazole-2-carboxamido)-4-(7-hydroxybenzofuran-2-yl)thiophene-3-carboxylic acid]: the 50% inhibitory concentration (IC50) was less than 10 µM.
In the case of `COc1cccc2cc(-c3csc(NC(=O)c4nc5ccccc5o4)c3C(=O)O)oc12` [2-(benzo[d]oxazole-2-carboxamido)-4-(7-methoxybenzofuran-2-yl)thiophene-3-carboxylic acid], the IC50 was less than 10 µM.
The result for `O=C(Nc1scc(-c2ccc(Cl)cc2)c1C(=O)O)c1ccc2ncoc2c1` [2-(benzo[d]oxazole-6-carboxamido)-4-(4-chlorophenyl)thiophene-3-carboxylic acid] reads less than 10 µM.
Regarding `Cc1ccc(-c2csc(NC(=O)c3nc4ccccc4s3)c2C(=O)O)c(F)c1F` [2-(benzo[d]thiazole-2-carboxamido)-4-(2,3-difluoro-4-methylphenyl)thiophene-3-carboxylic acid], the 50% inhibitory concentration (IC50) is less than 10 µM.
The result for `Cc1ccc(-c2csc(NC(=O)c3nc4ccccc4s3)c2C(=O)O)c(F)c1` [2-(benzo[d]thiazole-2-carboxamido)-4-(2-fluoro-4-methylphenyl)thiophene-3-carboxylic acid] reads less than 10 µM.
With `Cc1ccc(-c2csc(NC(=O)c3nc4ccccc4s3)c2C(=O)O)cc1F` [2-(benzo[d]thiazole-2-carboxamido)-4-(3-fluoro-4-methylphenyl)thiophene-3-carboxylic acid] the figure was less than 10 µM; with `O=C(Nc1scc(-c2ccc(Br)cc2)c1C(=O)O)c1nc2ccccc2s1` [2-(benzo[d]thiazole-2-carboxamido)-4-(4-bromophenyl)thiophene-3-carboxylic acid], less than 10 µM.
The result for `O=C(Nc1scc(-c2ccc(Cl)c(F)c2F)c1C(=O)O)c1nc2ccccc2s1` [2-(benzo[d]thiazole-2-carboxamido)-4-(4-chloro-2,3-difluorophenyl)thiophene-3-carboxylic acid] reads less than 10 µM; that for `O=C(Nc1scc(-c2ccc(Cl)cc2F)c1C(=O)O)c1nc2ccccc2s1` [2-(benzo[d]thiazole-2-carboxamido)-4-(4-chloro-2-fluorophenyl)thiophene-3-carboxylic acid], less than 10 µM; that for `O=C(Nc1scc(-c2cc(F)c(Cl)c(F)c2)c1C(=O)O)c1nc2ccccc2s1` [2-(benzo[d]thiazole-2-carboxamido)-4-(4-chloro-3,5-difluorophenyl)thiophene-3-carboxylic acid], less than 10 µM.
As to `O=C(Nc1scc(-c2ccc(Cl)c(F)c2)c1C(=O)O)c1nc2ccccc2s1` [2-(benzo[d]thiazole-2-carboxamido)-4-(4-chloro-3-fluorophenyl)thiophene-3-carboxylic acid], the IC50 is less than 10 µM.
With `O=C(Nc1scc(-c2ccc(Cl)cc2)c1C(=O)O)c1nc2ccccc2s1` [2-(benzo[d]thiazole-2-carboxamido)-4-(4-chlorophenyl)thiophene-3-carboxylic acid] the figure was less than 10 µM; with `O=C(Nc1scc(-c2cc3cccc(O)c3o2)c1C(=O)O)c1nc2ccccc2s1` [2-(benzo[d]thiazole-2-carboxamido)-4-(7-hydroxybenzofuran-2-yl)thiophene-3-carboxylic acid], less than 10 µM; with `Cc1ccc(-c2csc(NC(=O)c3nc4ccccc4s3)c2C(=O)O)cc1` [2-(benzo[d]thiazole-2-carboxamido)-4-p-tolylthiophene-3-carboxylic acid], less than 10 µM.

For orientation: IC50 means the concentration needed to halve the response being measured.

(Values after patent US8394848B2, “Compounds that modulate intracellular calcium” (Calcimedica, Inc., priority 2008, dated 2013).)
